In the assay the test system is AR and PSA. Kind of assay: NAC pretreatment and down-regulation of AR and PSA in LAPC-4 cells. The class given is cell-based. As to conditions: 10 mmol/L NAC 24 h pretreatment.

Each structure is given as a SMILES string.

Regarding `CC(=O)N[C@@H](CS)C(=O)O` [NAC, N-acetylcysteine], the “effect of NAC on methylseleninic acid (MSeA)-induced down-regulation of the AR and PSA” value (then 10 μmol/L MSeA 24 h) is recorded as “does not inhibit”. Where the note is “then selenite 24 h”, the “effect of NAC on selenite-induced down-regulation of the AR and PSA” value was “inhibits”.

Values taken from patent US20210046106A1, “METHODS OF TREATING CANCER WITH ANDROGEN DEPRIVATION THERAPY IN COMBINATION WITH AN INHIBITOR OF THE SP1 TRANSCRIPTION FACTOR” (The Board of Trustees of the Leland Stanford Junior …, priority 2019, published 2021).
